Read-outs that look alike come from different tables or passages of the source.
Assays:
[1] = molecular target: T1, human recombinant adrenergic α1D receptor (Homo sapiens, UniProt P25100); assay: Adrenergic α1D radioligand binding ([3H]Prozosin)
T1 construct: expressed in transfected cells; host or cells: HEK-293 cells
T1 sequence (P25100 1-572): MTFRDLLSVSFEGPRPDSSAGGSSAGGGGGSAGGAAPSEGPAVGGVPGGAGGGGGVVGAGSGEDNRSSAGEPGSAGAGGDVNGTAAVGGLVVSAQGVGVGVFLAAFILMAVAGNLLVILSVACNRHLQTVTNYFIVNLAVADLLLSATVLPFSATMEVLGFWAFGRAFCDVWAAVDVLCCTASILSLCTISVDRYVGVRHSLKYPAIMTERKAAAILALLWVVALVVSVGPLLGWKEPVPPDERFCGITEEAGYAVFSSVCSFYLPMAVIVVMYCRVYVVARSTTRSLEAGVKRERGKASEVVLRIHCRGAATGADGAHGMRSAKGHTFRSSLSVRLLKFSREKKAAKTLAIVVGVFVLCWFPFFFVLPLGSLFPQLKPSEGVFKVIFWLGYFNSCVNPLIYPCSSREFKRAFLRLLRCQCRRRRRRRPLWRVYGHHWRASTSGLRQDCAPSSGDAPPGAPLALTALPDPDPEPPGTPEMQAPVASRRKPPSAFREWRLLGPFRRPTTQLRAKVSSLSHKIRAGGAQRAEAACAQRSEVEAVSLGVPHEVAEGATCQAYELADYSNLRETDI
How it was run: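 Membranes from HEK-293 cells expressing recombinant α1D receptor, in 50 mM Tris-HCl pH 7.4, incubated with 0.6 nM [3H]prazosin for 60 min at 25 °C; non-specific binding defined with 10 μM phentolamine. Filtration and counting.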

[2] = molecular target: T2, human recombinant adrenergic α2B receptor (Homo sapiens, UniProt P18089); assay: Adrenergic α2B radioligand binding ([3H]Rauwolscine)
T2 construct: expressed in transfected cells; host or cells: CHO-K1 cells
T2 sequence (P18089 1-450): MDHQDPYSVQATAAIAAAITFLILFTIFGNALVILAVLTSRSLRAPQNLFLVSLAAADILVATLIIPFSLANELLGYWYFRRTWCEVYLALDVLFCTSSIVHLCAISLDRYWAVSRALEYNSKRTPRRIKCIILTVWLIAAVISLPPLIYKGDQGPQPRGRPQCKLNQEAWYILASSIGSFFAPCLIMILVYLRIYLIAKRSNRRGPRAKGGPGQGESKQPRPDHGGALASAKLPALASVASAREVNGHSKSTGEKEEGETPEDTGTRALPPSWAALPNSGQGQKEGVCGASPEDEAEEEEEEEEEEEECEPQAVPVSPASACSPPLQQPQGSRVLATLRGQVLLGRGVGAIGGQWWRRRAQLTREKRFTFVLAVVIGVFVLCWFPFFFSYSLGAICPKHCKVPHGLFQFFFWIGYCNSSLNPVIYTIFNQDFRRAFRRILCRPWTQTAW
How it was run: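 Human α2B receptor expressed in CHO-K1 cells, in 50 mM Tris-HCl pH 7.4, 12.5 mM MgCl2, 1 mM EDTA, 0.2% BSA. Binding of 2.5 nM [3H]Rauwolscine, 60 min at 25° C, filtration; non-specific defined with 10 μM prazosin.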

[3] = molecular target: T3, human recombinant serotonin (5-Hydroxytryptamine) 5-HT2C receptor (Homo sapiens, UniProt P28335); assay: Serotonin 5-HT2C radioligand binding ([3H]Mesulergine)
T3 construct: expressed in transfected cells; host or cells: CHO-K1 cells
T3 sequence (P28335 33-458): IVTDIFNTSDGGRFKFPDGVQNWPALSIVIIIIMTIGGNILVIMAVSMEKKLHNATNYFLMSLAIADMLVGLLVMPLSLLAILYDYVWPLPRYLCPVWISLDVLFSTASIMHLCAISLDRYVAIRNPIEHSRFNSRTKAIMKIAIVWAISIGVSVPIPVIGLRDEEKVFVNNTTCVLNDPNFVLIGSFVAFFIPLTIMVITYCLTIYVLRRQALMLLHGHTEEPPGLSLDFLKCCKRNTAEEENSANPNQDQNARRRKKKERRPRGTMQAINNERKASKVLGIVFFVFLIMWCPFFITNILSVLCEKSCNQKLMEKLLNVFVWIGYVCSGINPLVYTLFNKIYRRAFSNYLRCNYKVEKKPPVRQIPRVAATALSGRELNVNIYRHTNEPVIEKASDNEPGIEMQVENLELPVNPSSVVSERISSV
Description: Compounds of the invention were incubated with 1 nM [^3H]Mesulergine for 60 minutes at 25° C. Non-specific binding was estimated in the presence of 1 μM Mianserin. Receptor proteins were filtered and washed, the filters were then counted to determine [^3H]Mesulergine specifically bound. […] Biochemical assay results are presented as the percent inhibition of specific binding in Table 5.

[4] = molecular target: T4, human recombinant histamine H2 receptor (Homo sapiens, UniProt P25021); assay: Histamine H2 radioligand binding ([125I]Aminopotentidine)
T4 construct: expressed in transfected cells; host or cells: CHO-K1 cells
How it was run: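 Membranes of CHO-K1 cells expressing human H2 receptor incubated with 0.1 nM [125I]aminopotentidine, 120 min, 25 °C, 50 mM phosphate pH 7.4; nonspecific binding defined with 3 μM tiotidine.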

[5] = 1 h, read-out: Percent Inhibition of ligand binding Adrenergic (1 μM ligand conc.) α1D
[6] = 1 h, read-out: Percent Inhibition of ligand binding Adrenergic (1 μM ligand conc.) α2B
[7] = 1 h, read-out: Percent Inhibition of ligand binding Serotonin (1 μM ligand concentration) 5-HT2C
[8] = 1 μM, inhibition of specific [125I]Aminopotentidine binding, read-out: Binding data (Percentage Inhibition) Histamine Binding (1 μM) H2

T4 sequence (P25021 whole entry): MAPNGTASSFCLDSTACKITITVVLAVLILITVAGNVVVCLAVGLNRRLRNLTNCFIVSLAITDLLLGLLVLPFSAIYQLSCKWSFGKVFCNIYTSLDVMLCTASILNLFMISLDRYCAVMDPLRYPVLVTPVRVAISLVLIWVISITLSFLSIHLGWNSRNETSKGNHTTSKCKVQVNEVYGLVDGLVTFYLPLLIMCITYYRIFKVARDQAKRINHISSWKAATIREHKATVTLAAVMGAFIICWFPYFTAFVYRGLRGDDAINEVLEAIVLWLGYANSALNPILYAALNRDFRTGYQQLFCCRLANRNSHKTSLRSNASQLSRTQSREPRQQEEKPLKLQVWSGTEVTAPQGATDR

| Structure (SMILES) | inhibition at 1 µM [1, 5] | inhibition at 1 µM [2, 6] | inhibition at 1 µM [3, 7] | inhibition at 1 µM [4, 8] | inhibition at 1 µM ([1]; compound concentration 1 μM, read-out: Percentage inhibition of ligand binding to Adrenergic α1D receptor) | inhibition at 1 µM ([2]; compound concentration 1 μM, read-out: Percentage inhibition of ligand binding to Adrenergic α2B receptor) | inhibition at 0.01 µM ([3]; compound concentration 10 nM, read-out: Percentage inhibition of ligand binding to 5-HT2C receptor) | inhibition at 0.03 µM ([3]; compound concentration 0.03 μM, read-out: Percentage inhibition of ligand binding to 5-HT2C receptor) | inhibition at 0.1 µM ([3]; compound concentration 0.1 μM, read-out: Percentage inhibition of ligand binding to 5-HT2C receptor) | inhibition at 0.3 µM ([3]; compound concentration 0.3 μM, read-out: Percentage inhibition of ligand binding to 5-HT2C receptor) | inhibition at 1 µM ([3]; compound concentration 1 μM, read-out: Percentage inhibition of ligand binding to 5-HT2C receptor) | inhibition at 1 µM ([4]; compound concentration 1 μM, read-out: Percentage inhibition of ligand binding to H2 receptor) |
| --- | --- | --- | --- | --- | --- | --- | --- | --- | --- | --- | --- | --- |
| CC1c2c(c3cc(Cl)ccc3n2C#Cc2ccc(Cl)cc2)CCN1C (stereo not shown) [Compound 132, 6-chloro-9-((4-chlorophenyl)ethynyl)-1,2-dimethyl-2,3,4,9-tetrahydro-1H-pyrido[3,4-b]indole] | -8% | 84% | 94% | 57% | – | – | – | – | – | – | – | – |
| CCC1c2c(c3cc(C)ccc3n2C(=O)Cc2ccc(F)cc2)CCN1C (stereo not shown) [Compound 159] | 25% | 78% | 103% | 20% | – | – | – | – | – | – | – | – |
| CCC1c2c(c3cc(C)ccc3n2/C=C(\C)c2ccc(Cl)cc2)CCN1C (stereo not shown) [Compound 160, 9-(2-(4-chlorophenyl)prop-1-enyl)-1-ethyl-2,6-dimethyl-2,3,4,9-tetrahydro-1H-pyrido[3,4-b]indole] | 25% | 75% | 103% | 67% | – | – | – | – | – | – | – | – |
| C/C(=C\n1c2c(c3cc(C)ccc31)CCN(C)C2C)c1ccc(Cl)cc1 (stereo not shown) [Compound 161, 9-(2-(4-chlorophenyl)prop-1-enyl)-1,2,6-trimethyl-2,3,4,9-tetrahydro-1H-pyrido[3,4-b]indole] | 32% | 92% | 99% | 82% | – | – | – | – | – | – | – | – |
| CCC1c2c(c3cc(C)ccc3n2C#Cc2ccc(Cl)cc2)CCN1C (stereo not shown) [Compound 162, 9-((4-chlorophenyl)ethynyl)-1-ethyl-2,6-dimethyl-2,3,4,9-tetrahydro-1H-pyrido[3,4-b]indole] | 19% | 85% | 101% | 33% | – | – | – | – | – | – | – | – |
| Cc1ccc2c(c1)c1c(n2C(=O)Cc2ccc(Cl)cc2)C(c2ccccc2)N(C)CC1 (stereo not shown) [Compound 163] | 78% | 37% | 96% | 27% | – | – | – | – | – | – | – | – |
| C/C(=C\n1c2c(c3cc(C)ccc31)CCN(C)C2c1ccccc1)c1ccc(Cl)cc1 (stereo not shown) [Compound 164, 9-(2-(4-chlorophenyl)prop-1-enyl)-2,6-dimethyl-1-phenyl-2,3,4,9-tetrahydro-1H-pyrido[3,4-b]indole] | 10% | 15% | 98% | 25% | – | – | – | – | – | – | – | – |
| C/C(=C/n1c2c(c3cc(C)ccc31)CCN(C)C2C)c1ccccc1F (stereo not shown) [Compound 165] | 26% | 91% | 93% | 22% | – | – | – | – | – | – | – | – |
| C/C(=C\n1c2c(c3cc(C)ccc31)CCN(C)C2C)c1ccccc1F (stereo not shown) [Compound 166] | 69% | 106% | 96% | 90% | 69% | 106% | 33% | 62% | 87% | 93% | 96% | 90% |
| C/C(=C/n1c2c(c3cc(Cl)ccc31)CCN(C)C2C)c1ccccc1F (stereo not shown) [Compound 167] | 36% | 94% | 95% | 51% | – | – | – | – | – | – | – | – |
| C/C(=C\n1c2c(c3cc(Cl)ccc31)CCN(C)C2C)c1ccccc1F (stereo not shown) [Compound 168] | 38% | 82% | 96% | 64% | – | – | – | – | – | – | – | – |

Reference: patent US9260429B2, “Pyrido[3,4-B]indoles and methods of use” (Medivation Technologies, Inc., priority 2008, dated 2016)
